Results reported in paper PMC7961380, “A Systematic Study of the In Vitro Pharmacokinetics and Estimated Human In Vivo Clearance of Indole and Indazole-3-Carboxamide Synthetic Cannabinoid Receptor Agonists Detected on the Illicit Drug Market” (Molecules, 2021).
Read-outs that look alike come from different tables or passages of the source.

What was measured:
[1] = Metabolic stability, pooled human liver microsome incubations; settings: for CLint scaled at 0.5 µM / half-life at 0.5 µM: human, microsomes; for CLint scaled at 0.5 µM: pH 7.4, Intrinsic clearance; for half-life at 0.5 µM: pH 7.4, T1/2 (min); for Predicted In Vivo Hepatic Clearance, CLH: from pHLM CLint, well-stirred model with plasma fu, Q 21 mL min^−1 kg^−1
[2] = Metabolic stability, pooled human cryopreserved hepatocyte incubations; settings: human, hepatocytes; for CLint scaled at 0.5 µM: Intrinsic clearance, pHHeps, alternative hepatocyte cell density 99x10^6 hepatocytes per gram liver; for half-life at 0.5 µM: T1/2 (min), pHHeps 0.25 million cells mL^−1, 0.5 µM, 37 °C, n ≥ 3 ± SD
[3] = system: pooled human cryopreserved hepatocytes (pHHeps); assay: as above; settings: for Predicted In Vivo Hepatic Clearance, CLH: from pHHeps CLint, well-stirred model with plasma fu, Q 21 mL min^−1 kg^−1
[4] = Plasma protein binding by equilibrium dialysis; format: in vitro ADME, human; settings: for fraction unbound at 5 h, 10 µg mL^−1: human, pooled human plasma, pH 7.4, equilibrium dialysis 5 h, 37 °C
Protocol: Plasma protein binding was assessed by equilibrium dialysis in a 96-well dialysis block (HTDialysis, Ledyard, CT, USA). Dialysis membranes (12–14 kDa) were soaked in deionised water for at least 60 min. Membranes were soaked overnight at 4 °C in ethanol:water 20:80% v/v and then rinsed with deionised water immediately prior to use. […] Spiked plasma (150 µL) was dialysed against isotonic phosphate buffer (pH 7.4) (150 µL) for 5 h at 37 °C with shaking at 100 rpm. Thermal degradation controls for each test compound were kept at 37 °C and 4 °C. Blank control plasma and buffer were included in the incubation. Following incubation, dialysed plasma samples and thermal degradation controls (50 µL) were added to drug-free buffer (50 µL), and dialysed buffer samples (50 µL) were added to drug-free plasma (50 µL). […] Supernatant (150 µL) was added to 50 µL deionised water and samples were analysed by UPLC-MS/MS as described above. Dialysed buffer from each well was tested for protein contamination using BCA protein assay reagent to determine whether membranes had been compromised.
Bu = Analyte/IS ratio determined in buffer side (2) Fraction unbound, fu=(100−% bound)/100

[5] = Short-term plasma stability with and without esterase inhibitors; settings: 3 h, 37 °C; for remaining at 3 h, 5 µM: human, pH 7.4, Parent Compound Remaining (%)
Protocol: The pooled plasma used for both plasma stability and plasma binding studies originated from 50 donors, collected as whole blood from donors in the United States at an FDA-approved collection center, processed into plasma by centrifugation and immediately frozen (Innovative Research; Novi, MI, USA) and purchased from Patricell (Nottingham, UK). […] Stock solutions were prepared in DMSO. […] For incubations without inhibitor an equivalent volume of DMSO was included. Plasma mixture was pre-incubated at 37 °C for 5 min. Test compounds (5 µM) and procaine (positive control, 50 µM) were added to pre-warmed plasma mixture containing inhibitors. Incubation volume was 1 mL. Samples were mixed and 80 µL was immediately sampled and quenched into 200 µL ACN spiked with donepezil (internal standard (IS), 50 ng mL^−1). […] Peak area ratio of analyte to IS was used to determine half-lives of test compounds in plasma, both with and without the presence of esterase inhibitors.
The human plasma used was pooled from 50 donors, and was collected as whole blood from donors in
the United States at an FDA-approved collection center, processed into plasma by centrifugation and
The stability of the tested SCRAs, select metabolites and procaine control in pooled human plasma over
inhibitors bis(4-nitrophenyl) phosphate (BNPP) and phenyl methyl sulphonyl fluoride (PMSF) is

[6] = pHLM, alternative microsomal scaling factor 32 mg microsomal protein per gram liver
[7] = pHLM, alternative microsomal scaling factor 45 mg microsomal protein per gram liver
[8] = pHLM 0.5 mg mL^−1, 0.5 µM, NADPH, 37 °C, n ≥ 3 ± SD
[9] = 10 µg mL^−1, read-out: PPB (%) (converted)
[10] = plasma, read-out: Fraction Unbound (fu)
[11] = pHLM, scaling factor 32 mg microsomal protein per gram liver
[12] = pHLM, scaling factor 45 mg microsomal protein per gram liver
[13] = plasma, No Esterase Inhibitors, pH 7.4, pooled human plasma
[14] = pHHeps, 99x10^6 hepatocytes per gram liver
[15] = Esterase Inhibitors, pH 7.4, BNPP and PMSF 500 µM each

Compound: COC(=O)[C@H](NC(=O)c1nn(Cc2ccc(F)cc2)c2ccccc12)C(C)(C)C [(R)-MDMB-FUBINACA (6)]
- CLint scaled at 0.5 µM [1, 6]: 58.2 mL/min/kg
- CLint scaled at 0.5 µM [1, 7]: 81.8 ± 10.5 mL/min/kg
- half-life at 0.5 µM [1, 8]: 20 ± 2.5 min
- % parent compound remaining, Average ([1]; pHLM, 3 min): 77.3%
- % parent compound remaining, Average ([1]; pHLM, 6 min): 75.0%
- % parent compound remaining, Average ([1]; pHLM, 9 min): 70.2%
- % parent compound remaining, Average ([1]; pHLM, 15 min): 57.2%
- % parent compound remaining, Average ([1]; pHLM, 30 min): 33.3%
- Microsomal Intrinsic Clearance, CLint micr ([1]; pHLM, n ≥ 3 ± SD): 0.071 ± 0.009 mL min^−1 mg Microsomal Protein^−1
- CLint scaled at 0.5 µM [2]: 221 mL/min/kg
- half-life at 0.5 µM [2]: 32 ± 5.4 min
- % parent compound remaining, Average ([3]; pHHeps, 3 min): 93.0%
- % parent compound remaining, Average ([3]; pHHeps, 6 min): 82.9%
- % parent compound remaining, Average ([3]; pHHeps, 9 min): 77.6%
- % parent compound remaining, Average ([3]; pHHeps, 15 min): 70.2%
- % parent compound remaining, Average ([3]; pHHeps, 30 min): 53.1%
- % parent compound remaining, Average ([3]; pHHeps, 45 min): 57.7%
- % parent compound remaining, Average ([3]; pHHeps, 60 min): 41.1%

Compound: C=CCCCn1nc(C(=O)N[C@H](C(=O)OC)C(C)(C)C)c2ccccc21 [(S)-MDMB-4en-PINACA (5), methyl 3,3-dimethyl-2-[1-(pent-4-en-1-yl)-1H-indazole-3-carboxamido] butanoate]
- fraction unbound at 5 h, 10 µg mL^−1 [4, 9]: 0.01
- fraction unbound at 5 h, 10 µg mL^−1 [4, 10]: 0.01 ± 0.0001
- Predicted In Vivo Hepatic Clearance, CLH [1]: 2.66 ± 0.37 mL/min/kg
- Hepatic extraction ratio, EH ([1]; from pHLM incubations): 0.13 ± 0.018
- CLint scaled at 0.5 µM [1, 6]: 186 mL/min/kg
- CLint scaled at 0.5 µM [1, 7]: 262 ± 42.3 mL/min/kg
- half-life at 0.5 µM [1, 8]: 6.3 ± 1 min
- % parent compound remaining, Average ([1]; pHLM, 3 min): 72.3%
- % parent compound remaining, Average ([1]; pHLM, 6 min): 52.7%
- % parent compound remaining, Average ([1]; pHLM, 9 min): 36.7%
- % parent compound remaining, Average ([1]; pHLM, 15 min): 18.6%
- % parent compound remaining, Average ([1]; pHLM, 30 min): 3.1%
- Microsomal Intrinsic Clearance, CLint micr ([1]; pHLM, n ≥ 3 ± SD): 0.226 ± 0.037 mL min^−1 mg Microsomal Protein^−1
- Hepatic extraction ratio, EH [1, 11]: 0.08 ± 0.012
- Predicted in vivo hepatic clearance, CLH [1, 11]: 1.71 mL/min/kg
- Hepatic extraction ratio, EH [1, 12]: 0.11 ± 0.016
- Predicted in vivo hepatic clearance, CLH [1, 12]: 2.32 ± 0.33 mL/min/kg
- remaining at 3 h, 5 µM ([5]; plasma, Esterase Inhibitors, pH 7.4, BNPP and PMSF 500 µM each): 89 ± 3.3%
- remaining at 3 h, 5 µM [5, 13]: 94.8 ± 0.7%
- CLint scaled at 0.5 µM [2]: 632 mL/min/kg
- half-life at 0.5 µM [2]: 12 ± 2.6 min
- Predicted In Vivo Hepatic Clearance, CLH [3]: 5.11 ± 0.89 mL/min/kg
- Hepatic extraction ratio, EH ([3]; from pHHeps incubations): 0.24 ± 0.042
- Hepatic extraction ratio, EH [3, 14]: 0.23
- Predicted in vivo hepatic clearance, CLH [3, 14]: 4.82 mL/min/kg
- % parent compound remaining, Average ([3]; pHHeps, 3 min): 79.7%
- % parent compound remaining, Average ([3]; pHHeps, 6 min): 69.0%
- % parent compound remaining, Average ([3]; pHHeps, 9 min): 56.7%
- % parent compound remaining, Average ([3]; pHHeps, 15 min): 41.1%
- % parent compound remaining, Average ([3]; pHHeps, 30 min): 17.1%
- % parent compound remaining, Average ([3]; pHHeps, 45 min): 7.6%
- % parent compound remaining, Average ([3]; pHHeps, 60 min): 3.4%

Compound: C=CCCCn1cc(C(=O)N[C@@H](C(=O)OC)C(C)C)c2ccccc21 [(R)-AMB-4en-PICA (7), methyl 3-methyl-2-[(1-pent-4-enylindole-3-carbonyl)amino] butanoate]
- recovery (total peak area in dialysed samples vs 4 °C samples) ([4]; PPB thermal stability control, 5 h): 95 ± 2.0%
- fraction unbound at 5 h, 10 µg mL^−1 [4, 9]: 0.059
- fraction unbound at 5 h, 10 µg mL^−1 [4, 10]: 0.059 ± 0.001
- Predicted In Vivo Hepatic Clearance, CLH [1]: 11.8 ± 0.97 mL/min/kg
- Hepatic extraction ratio, EH ([1]; from pHLM incubations): 0.56 ± 0.046
- CLint scaled at 0.5 µM [1, 6]: 286 mL/min/kg
- CLint scaled at 0.5 µM [1, 7]: 402 mL/min/kg
- half-life at 0.5 µM [1, 8]: 4.1 ± 0.75 min
- % parent compound remaining, Average ([1]; pHLM, 3 min): 56.4%
- % parent compound remaining, Average ([1]; pHLM, 6 min): 36.2%
- % parent compound remaining, Average ([1]; pHLM, 9 min): 22.6%
- % parent compound remaining, Average ([1]; pHLM, 15 min): 9.6%
- % parent compound remaining, Average ([1]; pHLM, 30 min): 1.6%
- Microsomal Intrinsic Clearance, CLint micr ([1]; pHLM, n ≥ 3 ± SD): 0.348 ± 0.068 mL min^−1 mg Microsomal Protein^−1
- Hepatic extraction ratio, EH [1, 11]: 0.44 ± 0.047
- Predicted in vivo hepatic clearance, CLH [1, 11]: 9.28 mL/min/kg
- Predicted in vivo hepatic clearance, CLH [1, 12]: 11.05 mL/min/kg
- remaining at 3 h, 5 µM [5, 15]: 95.5 ± 2.9%
- remaining at 3 h, 5 µM [5, 13]: 91.7 ± 1.9%
- CLint scaled at 0.5 µM [2]: 1470 mL/min/kg
- half-life at 0.5 µM [2]: 5.5 ± 2.1 min
- Predicted In Vivo Hepatic Clearance, CLH [3]: 16.79 ± 1.33 mL/min/kg
- Hepatic extraction ratio, EH ([3]; from pHHeps incubations): 0.80 ± 0.063
- Hepatic extraction ratio, EH [3, 14]: 0.79 ± 0.066
- Predicted in vivo hepatic clearance, CLH [3, 14]: 16.53 ± 1.39 mL/min/kg
- % parent compound remaining, Average ([3]; pHHeps, 3 min): 57.7%
- % parent compound remaining, Average ([3]; pHHeps, 6 min): 46.1%
- % parent compound remaining, Average ([3]; pHHeps, 9 min): 25.6%
- % parent compound remaining, Average ([3]; pHHeps, 15 min): 13.7%
- % parent compound remaining, Average ([3]; pHHeps, 30 min): 4.6%
- % parent compound remaining, Average ([3]; pHHeps, 45 min): 1.6%
- % parent compound remaining, Average ([3]; pHHeps, 60 min): 0.6%

Compound: CC(C)[C@H](NC(=O)c1nn(CC2CCCCC2)c2ccccc12)C(N)=O [(S)-AB-[…] (11), N-[1-amino-3-methyl-1-oxobutan-2-yl]-1-(cyclohexylmethyl)-1H-indazole-3-carboxamide]
- fraction unbound at 5 h, 10 µg mL^−1 [4, 9]: 0.028
- fraction unbound at 5 h, 10 µg mL^−1 [4, 10]: 0.028 ± 0.0219
- CLint scaled at 0.5 µM [1, 6]: 42.1 mL/min/kg
- CLint scaled at 0.5 µM [1, 7]: 59.2 mL/min/kg
- half-life at 0.5 µM [1, 8]: 27 ± 2.9 min
- remaining at 3 h, 5 µM [5, 15]: 97.9 ± 7%
- remaining at 3 h, 5 µM [5, 13]: 98.2 ± 7.2%
- CLint scaled at 0.5 µM [2]: 194 mL/min/kg
- half-life at 0.5 µM [2]: 39 ± 8.8 min

Compound: COC(=O)[C@H](NC(=O)c1nn(CCCCCF)c2ccccc12)C(C)(C)C [(R)-5F-MDMB-PINACA (2), methyl 2-[1-(5-fluoropentyl)-1H-indazole-3-carboxamido]-3,3-dimethylbutanoate]
- fraction unbound at 5 h, 10 µg mL^−1 [4, 9]: 0.04
- fraction unbound at 5 h, 10 µg mL^−1 [4, 10]: 0.04 ± 0.0058
- Predicted In Vivo Hepatic Clearance, CLH [1]: 6.52 ± 0.61 mL/min/kg
- Hepatic extraction ratio, EH ([1]; from pHLM incubations): 0.31 ± 0.029
- T1/2 [1, 8]: 8.0 ± 1.1 min
- % parent compound remaining, Average ([1]; pHLM, 3 min): 71.1%
- % parent compound remaining, Average ([1]; pHLM, 6 min): 58.2%
- % parent compound remaining, Average ([1]; pHLM, 9 min): 44.4%
- % parent compound remaining, Average ([1]; pHLM, 15 min): 28.9%
- % parent compound remaining, Average ([1]; pHLM, 30 min): 8.7%
- Intrinsic clearance, CLint [1, 6]: 145 mL/min/kg
- Intrinsic clearance, CLint [1, 7]: 204 mL/min/kg
- Microsomal Intrinsic Clearance, CLint micr ([1]; pHLM, n ≥ 3 ± SD): 0.176 ± 0.024 mL min^−1 mg Microsomal Protein^−1
- Hepatic extraction ratio, EH [1, 11]: 0.22 ± 0.023
- Predicted in vivo hepatic clearance, CLH [1, 11]: 4.53 ± 0.48 mL/min/kg
- Hepatic extraction ratio, EH [1, 12]: 0.28 ± 0.027
- Predicted in vivo hepatic clearance, CLH [1, 12]: 5.85 ± 0.57 mL/min/kg
- Parent Compound Remaining (%), Esterase Inhibitors ([5]; pH 7.4, BNPP and PMSF 500 µM each): 100.1 ± 7.0%
- Parent Compound Remaining (%), No Esterase Inhibitors ([5]; pH 7.4, pooled human plasma): 95.9 ± 6.7%
- Predicted In Vivo Hepatic Clearance, CLH [3]: 8.16 ± 0.38 mL/min/kg
- Hepatic extraction ratio, EH ([3]; from pHHeps incubations): 0.39 ± 0.018
- half-life ([3]; pHHep lot HUE50-N): 22.9 ± 1.8 min
- half-life ([3]; pHHep lot HUE50-P): 6.5 ± 0.13 min
- T1/2 ([3]; pHHeps 0.25 million cells mL^−1, 0.5 µM, 37 °C, n ≥ 3 ± SD): 23 ± 1.8 min
- Hepatic extraction ratio, EH [3, 14]: 0.37 ± 0.018
- Predicted in vivo hepatic clearance, CLH [3, 14]: 7.78 ± 0.38 mL/min/kg
- % parent compound remaining, Average ([3]; pHHeps, 3 min): 84.1%
- % parent compound remaining, Average ([3]; pHHeps, 6 min): 67.3%
- % parent compound remaining, Average ([3]; pHHeps, 9 min): 55.7%
- % parent compound remaining, Average ([3]; pHHeps, 15 min): 45.8%
- % parent compound remaining, Average ([3]; pHHeps, 30 min): 27.3%
- % parent compound remaining, Average ([3]; pHHeps, 45 min): 17.9%
- % parent compound remaining, Average ([3]; pHHeps, 60 min): 13.6%
- Intrinsic clearance, CLint ([3]; pHHeps, alternative hepatocyte cell density 99x10^6 hepatocytes per gram liver): 309 ± 23.6 mL/min/kg
